{"source": "patent US10695288B2", "about": "“Reactive oxygen species (ROS)-responsive compositions and methods thereof” (VANDERBILT UNIVERSITY, priority 2014, dated 2020)", "key": {"[1]": {"experiment": "Pilot studies with free curcumin in vitro", "format": "physicochemical"}, "[2]": {"test_system": "ROS levels in ischemic tissue", "experiment": "Pilot studies with free curcumin in ischemic tissue", "format": "in vivo"}, "[3]": {"experiment": "Superoxide scavenging in vitro (DHE fluorescence, xanthine/xanthine oxidase)", "format": "biochemical", "settings": "55 μg/mL, one-way ANOVA p<0.0001", "method": "In vitro superoxide scavenging activity of the tempo-PPS microspheres was evaluated using a dihydroethidium (DHE) fluorescence assay. DHE has been widely used to detect superoxide, which reacts with DHE to form a specific fluorescent product, 2-OH-ethidium (2OH-E). The effects of PPS and tempo-benzoate on superoxide were determined using a superoxide-generating, cell-free enzymatic system containing 0.046 U/ml xanthine oxidase and 0.2 mM xanthine. Xanthine was prepared in PBS−/− as a stock solution (1.21 mg/mL), and the appropriate volume of xanthine stock solution was added to the xanthine oxidase solution to reach the required final concentration. The xanthine/xanthine oxidase solution (100 μL) was added to wells in a black-walled, 96-well plate containing the following treatments: PBS, blank PPS microspheres (55 μg/mL), free tempo-benzoate (dissolved in acetonitrile then diluted to 5% acetonitrile, 55 μg/mL tempo-benzoate), and tempo-PPS microspheres (55 μg/mL microsphere concentration). Each well contained 10 μL of a treatment. […] After 10 minutes, 100 μL of the DHE solution was added to each well (10 uM final DHE concentration) and the fluorescence intensity was measured in a plate reader (Tecan Group Ltd., Mannedorf, Switzerland) over a time frame of 1 hour with an excitation of 405 nm and an emission of 570 nm. […]"}, "[4]": {"test_system": "type II collagen", "experiment": "IVIS imaging of MabCII fluorescence after knee mechanical overload", "format": "in vivo, C57BL/6 mice", "settings": "knee injection, loading cycles; vs PBS; p=0.0181 for microspheres", "method": "(§1) For the study, C57BL/6 mice knees were injected with TPCA-1-PPS microspheres, TPCA-1 in its soluble form, or a PBS saline control. The mice were then given loading cycles to induce damage to the knee via the Poulet model of knee overload. At the completion of the loading cycles, the mice were given fluorescent indicators and evaluated using IVIS (in vivo imaging system) for type II collagen (and indicator of cartilage damage), and MMP activity (implicated in the progression of OA). […] This difference was not seen in the mice given the soluble form of TPCA-1 however.\n(§2) TPCA-PPS microspheres were made as shown above. Chondrocytes were obtained from porcine cadavers prepared by the University of Tennessee Heath Science Center. MMPSense750 and XenoFluor 680 was obtained from PerkinElmer. Monoclonal antibodies to type II collagen were produced in our lab. C57BL/6 male mice were obtained from Jackson Laboratory (Maine, USA) and was acclimated in a housing facility before experimentation. A custom fit ElectroForce® 3200 (Bose Corp., Minnesota, USA) biomaterials test instrument was used for mechanical loading. The mechanical loading apparatus was custom made to fit the proximal tibia in the upper cup and dorsiflexed ankle in the bottom cup."}, "[5]": {"test_system": "MMP-13 activity", "experiment": "IVIS imaging of MMPSense fluorescence after knee mechanical overload", "format": "in vivo, C57BL/6 mice", "settings": "knee injection, loading cycles; vs PBS; p=0.0184 for microspheres", "method": "as §1, §2"}, "[6]": {"experiment": "Hydrogen peroxide scavenging in vitro (Amplex Red, xanthine/xanthine oxidase)", "format": "biochemical", "settings": "1 hour of incubation, one-way ANOVA p<0.001", "method": "H2O2-scavenging activity of the PPS microspheres was verified in vitro using an Amplex Red Hydrogen Peroxide/Peroxidase Assay kit according to the manufacturer's instructions. Xanthine and xanthine oxidase were used at the same concentrations as described in the DHE assay to generate a reaction solution containing both superoxide and hydrogen peroxide. The reaction solution was added to wells in a black-walled, 96-well plate containing either PBS, blank PPS microspheres (final concentrations of 60 μg/mL and 7 μg/mL), or free tempo-benzoate (final concentrations of 0.5 mg/mL and 60 μg/mL). The Amplex Red working solution was freshly prepared as described in the kit instructions using the included Amplex Red, horseradish peroxidase, and 1× reaction buffer. The working solution was then added to the wells and fluorescence was measured in a plate reader at 1 hour with an excitation of 530 nm and an emission of 590 nm."}, "[7]": {"test_system": "mouse hind limb ischemia model", "experiment": "Speckle variance OCT of vascular morphology in adductor and gastrocnemius regions (Example 2)", "format": "in vivo, FVB mice", "settings": "gastrocnemius muscle, day 3, vs saline", "excerpt": "Briefly, the femoral artery and vein of the right hind limb were ligated with 6-0 sutures proximal to the origins of the superficial epigastric artery and deep branch of the femoral artery, and proximal to the vessels the branch from the femoral artery near the knee. Major side branches were also ligated with 6-0 sutures before the ligated segment of the femoral artery and vein was excised. The incision was closed with interrupted 5-0 nylon sutures. In therapeutic experiments, treatments were injected intramuscularly in the ischemic limb following closure of the skin incision. […]\nAt 0, 3, 7, 14, 21, and 28 days post-surgery, the hind limb vasculature in the adductor and gastrocnemius muscle regions was imaged using a swept-source optical coherence tomography (OCT) system as described previously (26, 39). […] Speckle variance OCT volumes were acquired non-invasively through the skin in 4 mm×4 mm areas covering the two muscle regions, and average intensity projections in depth were used to visualize all vessels detected within the imaged volume. After image processing was performed to enhance contrast and enable vessel segmentation (39, 40), morphological parameters including vessel area density (total area filled by vessels/total area of imaged region) and vessel length fraction (total vessel length/total area of imaged region) were quantified."}, "[8]": {"experiment": "Peroxynitrite scavenging in vitro (Pyrogallol Red bleaching assay)", "format": "biochemical", "settings": "10 μM peroxynitrite; negative control", "method": "The ability of PPS microspheres to scavenge peroxynitrite was tested in vitro using a Pyrogallol Red (PGR) bleaching assay. Treatment groups consisting of PBS, blank PPS microspheres (0.5-1.5 mg/mL), tempo-PPS microspheres (0.5 mg/mL), tempol (0.2 mg/mL, hydrophilic analog of tempo-benzoate), and ascorbic acid (negative control, pH adjusted to 7.4) were prepared in a 48-well plate with 500 μL volume per well. A PGR stock solution was prepared in PBS ([…]) and 10 μL was added to each well. Peroxynitrite stock solution was thawed on ice and diluted to a concentration of 1 mM in 0.3 M NaOH. After baseline absorbance of the dye was measured in a plate reader at 540 nm, 5 μL of peroxynitrite was added to each well (final concentration of 10 μM) and absorbance measurements were collected for one hour."}, "[9]": {"test_system": "MMP-13", "experiment": "MMP-13 expression from PCR with TNF-α", "format": "cell-based, porcine", "settings": "TNF-α alone", "excerpt": "as §2"}}, "data": [{"compound": "COc1cc(/C=C/C(=O)CC(=O)/C=C/c2ccc(O)c(OC)c2)ccc1O", "note": "[free curcumin, Curcumin]", "values": [{"measurement": "behaviour of free curcumin in vitro", "setting": "[1]", "result": "formed crystals in vitro"}, {"measurement": "ROS levels in ischemic tissue", "setting": "[2]", "result": "exacerbated ROS levels in ischemic tissue"}]}, {"compound": "SOD: bovine SOD (20 U/ml) used as a negative control treatment", "values": [{"measurement": "fluorescent signal from the DHE oxidation product compared to no treatment", "setting": "[3]", "result": "further inhibited"}]}, {"compound": "NC(=O)Nc1sc(-c2ccc(F)cc2)cc1C(N)=O", "note": "[TPCA-1 in solution, TPCA-1]", "values": [{"measurement": "MabCII fluorescence (exposed type II collagen)", "setting": "[4]", "result": "not a significant reduction in fluorescence"}, {"measurement": "MMPSense fluorescence (MMP-13 activity)", "setting": "[5]", "result": "not a significant reduction in fluorescence"}]}, {"compound": "CC1(C)CC(OC(=O)c2ccccc2)CC(C)(C)N1[O]", "note": "[free tempo-benzoate, 4-hydroxy-TEMPO benzoate]", "values": [{"measurement": "fluorescent signal from the DHE oxidation product compared to no treatment", "setting": "[3]", "result": "significantly reduce fluorescence"}, {"measurement": "Amplex Red fluorescence", "setting": "[6]", "result": "significantly increases the fluorescent signal"}, {"measurement": "vessel area density", "setting": "[7]; p<0.01", "result": "saline-treated mice have significantly lower vessel area density"}, {"measurement": "vessel length fraction", "setting": "[7]; p<0.05", "result": "significantly lower in the saline group"}]}, {"compound": "O=C1O[C@H]([C@@H](O)CO)C(O)=C1O", "note": "[Ascorbic acid, ascorbic acid]", "values": [{"measurement": "relative bleaching", "setting": "[8]", "result": 2, "unit": "%"}]}, {"compound": "TNF-α", "values": [{"measurement": "increase in MMP-13 expression", "setting": "[9]", "result": "~20", "unit": "fold"}]}]}
